According to patent US12715851B2, “4′-substituted analogues of fisetin and their use in the treatment of cancer” (Stellenbosch University, priority 2020, dated 2026):
“Also recorded” adds a separate entry of the source.

Experiments:
[1] = tested on: B(a)P-induced lung carcinogenesis; assay: B(a)P-induced lung carcinogenesis, Initiation and Promotion Protocols; type: in vivo, Swiss albino mice
Description: To assess whether Fisetin and its 4-bromo-Fisetin analogue (Fisetin analogue 3c) have anticarcinogenesis activity and if any toxicity in terms of water and food consumption, and body weight, Benzo[a]pyrene [B(a)P] induced lung carcinogenesis in Swiss albino mice were employed in the study. Along with the antitumor activity of the agents, the body weight, food and water intake in different treatment groups were monitored on regular intervals and analysed.
There were six different treatment groups in the study including, (1) control, (2) B(a)P, (3) Fisetin+B(a)P, (4) Fisetin analogue 3c+B(a)P, (5) B(a)P+Fisetin and (6) B(a)P+Fisetin analogue 3c.
Groups 3 and 4 represent the Initiation Protocol (agents treatment started 1 week before carcinogen treatment and continued 1 week after the last dose of the carcinogen). Groups 5 and 6 represent the Promotion Protocol (agents treatment started after 3 weeks of the carcinogen treatment). The B(a)P was given orally twice a week for 4 weeks at 50 mg/kg body weight dose, whereas Fisetin and Fisetin analogue (3c) were administered orally at 25 mg/kg body weight thrice weekly (see FIG. 9).

[2] = tested on: reduced glutathione (GSH); assay: Hepatotoxicity: reduced glutathione; type: in vivo, swiss albino mice; conditions: 50 mg/kg orally, two weeks
Protocol: (§1) Hepatotoxicity is considered to be one of the major challenges for drug development schemes. The liver is the primary organ for the metabolism or biotransformation of a given drug. To assess the hepatotoxicity of these compounds, the effects of Fisetin and analogue 3c on various hepatic enzymes was assessed.
(§2) A lipid peroxidation assay was performed on microsomal liver fraction and determined in terms of TBARS formation. […] The modulatory effects of Fisetin and analogue 3c were determined on the specific activities of cytochrome b5 reductase (Cytb5R) and cytochrome P450 reductase (CytP450R), phase I enzyme of xenobiotic metabolism. Fisetin and analogue 3c caused reduction in the specific activity of cytochrome b5 reductase. Fisetin decreased Cytb5R specific activity by 66% whereas analogue 3c (50 mg/kg) caused a 36% reduction in specific activity (FIG. 7F). An increase in specific activity of CytP450R by Fisetin and analogue 3c was observed. Fisetin and analogue 3c (50 mg/kg) increased the specific activity by 15% and 13%, respectively (FIG. 7G). Next, the specific activities of phase II enzymes, glutathione S-transferase (GST) and reduced glutathione (GSH) were measured. […] Fisetin and analogue 3c (50 mg/kg) caused a decrease in specific activity of GSH by 34% and 7%, respectively (FIG. 7I). […] These analogues are therefore likely to be effective and safe phytochemicals.

[3] = tested on: H1299 human lung cancer cells; assay: Cell cycle distribution, propidium iodide flow cytometry; type: cell-based; conditions: H1299, 48 h
Protocol: (§3) To examine the effect of Fisetin analogues on cell cycle regulation, cells were treated with different concentrations of Fisetin analogues (5, 10 & 20 μM) for 48 h, then stained with propidium iodide and subjected to flow cytometry. All three of the tested Fisetin analogues induced G2/M phase cell cycle arrest in A549 (FIGS. 5A-5C) and H1299 human lung cancer cells (FIGS. 5D-5F).

SOD = assay: Hepatotoxicity: specific activity of SOD; type: in vivo, swiss albino mice; conditions: liver of treated mice
Protocol: as §1, §2

A549 [4] = assay: Apoptosis assay; type: cell-based, human; conditions: 48 h, control cells 4.7%
Description: (§4) In A549, analogue 3a induced 8.2 and 11.2% apoptosis, analogue 3c induced 13.4 and 17.2% apoptosis, and analogue 3e induced 10.6 to 19.5% apoptosis compared to 4.7% in control cells (FIG. 6A).

H1299 cancer cells = assay: Apoptosis assay; type: cell-based, human; conditions: 48 h
Description: [Worded in the source for another cell line; used here, by the source, with some conditions changed.] as §4

[5] = Acute toxicity, fed orally for two weeks; type: in vivo; conditions: Fisetin 50 mg/kg, 3c 25 and 50 mg/kg body weight
Protocol: Fisetin analogue 3c was used to assess the potential toxicity of these analogues in a pre-clinical model. To test the acute toxicity, Fisetin (50 mg/kg body weight), analogue 3c (25 mg/kg and 50 mg/kg body weight), and vehicle control (5% DMSO, 45% PEG-300 and 50% saline) was fed orally for two weeks. Abnormal clinical signs such as decreased motor activity, sensory reflection, body weight, food intake, and water intake were monitored during the treatment period. An increase in body weight was observed among all groups throughout the treatment period (FIG. 7A). […] This variation could be due to consistent frequency of dosage.

A549 cells = assay: Western blot of signalling, cell cycle and apoptosis markers; type: cell-based, human; conditions: IC50 concentration and 20 μM
Description: Similarly, in H1299 cells analogue 3a induced a 11.7 to 14.9% cell death (FIG. 4D right) compared to 3.8% in control cells. Analogue 3c (FIG. 4E right) and analogue 3e (FIG. 4F right) induced cell death of 8.2 to 15.1% and 8.8 to 16.6% respectively. For western blot experiments, two concentrations were used, i.e. the IC50 concentration and the next higher concentration utilized for cell proliferation for each cell line.
The expression of pro-oncogenic signalling molecules, which are involved in proliferation and survival of cancer cells, were evaluated.
The effect of the Fisetin analogues on molecular markers of apoptosis was assessed.

[6] = tested on: cytochrome P450 reductase (CytP450R); assay: Hepatotoxicity: specific activity of cytochrome P450 reductase; type: in vivo, swiss albino mice; conditions: 50 mg/kg orally, two weeks
Protocol: as §1, §2

[7] = tested on: glutathione S-transferase (GST); assay: Hepatotoxicity: specific activity of glutathione S-transferase; type: in vivo, swiss albino mice; conditions: liver of treated mice
Protocol: as §1, §2

A549 [8] = assay: Cell cycle distribution, propidium iodide flow cytometry; type: cell-based, human; conditions: 48 h
Protocol: as §3

[9] = tested on: A549 lung cancer cell line; assay: MTT cell proliferation assay, cytotoxicity after 48 h treatment; type: cell-based, human
Protocol: These 4′-substituted Fisetin analogues were initially screened for cytotoxicity against the A549 lung cancer cell line following a 48 h treatment period. Cytotoxicity IC50's were quantified using the MTT cell proliferation assay. The compounds were not found to interfere with the assay by causing an increase in background absorbance, no correlation was found between the lipophilicity and cytotoxicity at this position, and the substituent size was also not found to be important.

O=c1c(O)c(-c2ccc(Br)cc2)oc2cc(O)ccc12 [analogue 3c, 4′-Bromo-3,7-dihydroxyflavone]
systemic toxicity during long-term application ([1]; 25 mg/kg orally thrice weekly): did not show any systemic toxicity | tumorigenic features in lung histology (nucleus size, cytoplasmic content, alveoli) ([1]; 25 mg/kg orally thrice weekly): reversal of the tumorigenic features | tumor incidence, histopathology of H&E stained serial sections ([1]; compared to the carcinogen treated group): less | decrease of area or size of lesions ([1]; initiation group): approximately 50% | efficacy in inhibiting B(a)P induced lung carcinogenesis, in words ([1]; mouse model): efficacious; also recorded: more effective in reducing the number as well as the size of the lung tumor lesions as compared to the parent compound Fisetin | decrease of area or size of lesions ([1]; promotion group): more than 50% | reduction of total number of lesions ([1]; tumor initiation group): approximately 50% | surface tumor lesion incidence, gross observation of lung ([1]; tumor initiation phase, B(a)P-only group 100% incidence): only one mouse showed surface tumor lesion out of five | tumor lesions per mouse and total number of lesions per group, in words ([1]; versus B(a)P group): strongly reduced | decrease in specific activity of GSH [2]: 7% | G2/M phase arrest ([3]; 5 μM): induced cell cycle arrest | G2/M phase arrest ([3]; 10 & 20 μM): induced G2/M phase arrest in both the cell lines significantly | specific activity of SOD (SOD): moderately induced | apoptosis (A549 [4]; IC50 concentration): 13.4% | apoptosis (A549 [4]; higher concentration 20 μM): 17.2% | apoptosis (H1299 cancer cells; IC50 concentration): 13.4% | apoptosis (H1299 cancer cells; higher concentration 10 μM): 17.2% | toxicity in mice, in words [5]: well tolerated in animal models; also recorded: does not show toxicity; also recorded: did not cause toxicity | cleaved caspase-3 (A549 cells): IC50 concentration of analogue 3c also increased cleaved caspase-3 to a significant amount; also recorded: higher concentration of analogue 3c and both the concentrations of analogue 3e increased the cleaved caspase-3 marginally | expression of p21 (A549 cells): increased the p21 expression significantly at higher concentration | expression of phospho Cdc-2 (A549 cells): IC50 concentration decreased the expression to some extent; also recorded: the higher concentrations decreased the phospho-Cdc-2 expression significantly | expression of phospho-EGFR (A549 cells): minimally affected except for higher concentration of analogue 3c | expression of phospho-Erk1/2 (A549 cells): decreased the expression of phospho-Erk1/2 significantly at both the concentrations | expression of pro-apoptotic protein Bax (A549 cells): increased the expression of Bax with much higher potential | total Stat-3 expression (A549 cells): not affected | total form of Akt (A549 cells): slightly downregulated | total form of Erk1/2 (A549 cells): not affected except for 3c in the higher concentration | increase in specific activity of CytP450R [6]: 13% | specific activities of GST compared to the control group [7]: did not cause significant change | G2/M phase arrest (A549 [8]; 5 μM): induced cell cycle arrest | G2/M phase arrest (A549 [8]; 10 & 20 μM): induced G2/M phase arrest in both the cell lines significantly | cytotoxicity, in words ([9]; A549, MTT, 48 h): particularly active | activity against lung cancer cell lines compared with the parent Fisetin ([9]; A549 and/or H1299): substantially more active
